Reference: US9012521B2, “Pyrroloquinoline quinone gel” (Mitsubishi Gas Chemical Company, Inc., priority 2010, dated 2015)

Assays:
[1] = assay type: physicochemical
Source text: When mixing the salt of pyrroloquinoline quinone with the dispersion medium, the salt of pyrroloquinoline quinone may be added to the dispersion medium, the dispersion medium may be added to the salt of pyrroloquinoline quinone, or the salt of pyrroloquinoline quinone and the disperse medium may be added into separate vessels. Preferably, the salt of pyrroloquinoline quinone can be added to the dispersion medium. Preferably, the concentration of the salt of pyrroloquinoline quinone here is the same or higher than the solubility. The “solubility” as used herein refers to the extent to which a solute dissolves in a solvent, and can be expressed by the concentration of the solute in the saturated solution. The solubility of the salt of pyrroloquinoline quinone can be suitably determined by the temperature of the mixture.

[2] = Dissolution test in water, monitored by absorption at 450 nm; assay type: physicochemical; settings: 1.3 mg PQQ powder in 2 mL water, room temperature; time to complete dissolution calculated from gradient of concentration change
Procedure: In Examples and Comparative Examples, UV measurements were performed using a HITACHI U-2000 Spectrophotometer. […] To an acrylic cell for UV measurement, 1.3 mg of the PQQ powder was added, followed by the addition of 2 mL of water. […] The dissolution in water was monitored by absorption at 450 nm at room temperature. Absorbance measurement was performed for one hour, and the duration until the complete dissolution was calculated from the gradient of change in the concentration.

[3] = Specific surface area by the BET method with N2 adsorption; assay type: physicochemical; settings: pre-treatment drying at 150° C. for 20 hours
Procedure: Using an Autosorb-6B manufactured by Quantachrome Instruments as the measurement apparatus, the specific surface area was determined by the BET method with N2 adsorption.

- solubility in water [1]: 0.299 g per 100 g of water
- Dissolution time [2]: 10 min
- specific surface area [3]: 2.9 m^2/g
SMILES: O=C(O)c1cc(C(=O)O)c2c(n1)C(=O)C(=O)c1cc(C(=O)O)[nH]c1-2 [Comparative Example 1, Pyrroloquinoline quinone disodium]
